This data set can be described thus: solvent given as SMILES.

Structures are written as SMILES. Where “and” joins values, the source holds several entries; their conditions need not be identical. Identical values can stand only once.

With `C=CCNS(=O)(=O)c1ccc2c(c1)C(=O)/C(=C1\Sc3ccc(S(=O)(=O)NCC=C)cc3C1=O)S2`, the emission maximum is 604 nm (in CN(C)C=O) and 625 nm (in CS(C)=O).

`N#Cc1c(N2CCCCC2)cc(-c2cccc3ccccc23)c2c1-c1ccccc1C2` returned an emission maximum (in C1CCOC1) of 442 nm.

Regarding `Cc1cc(C)c(B(c2cc3ccc4cccc5ccc(c2)c3c45)c2c(C)cc(C)cc2C)c(C)c1`, the emission maximum (in Cc1ccccc1) is recorded as 434 nm.

For `CCOC(=O)CN(CC(=O)OCC)c1ccc(-c2cc(-c3ccncc3)nc(-c3ccncc3)c2)cc1`, the emission maximum is, setting by setting: (in CC#N) 482 nm; (in CCOC(C)=O) 438 nm; (in CN(C)C=O) 490 nm; (in CS(C)=O) 496 nm; (in c1ccccc1) 412 nm.

`COc1ccc(-c2oc3cccc4c5c(-c6ccc(OC)c(OC)c6)c(=N)oc6cccc(c2c34)c65)cc1OC` yielded an emission maximum (in ClC(Cl)Cl) of 510 nm.

Take `Fc1ccc2cc3cccc[n+]3cc2c1`: for the setting “in O”, the emission maximum worked out at 408 nm.

`C1=C(c2ccccc2)[Si](c2ccccc2)(c2ccccc2)c2ccccc21` yielded an emission maximum (in ClCCl) of 400 nm.

Compound `CCCCC1(CCCC)c2cc(C#Cc3ccc(C=C4c5ccccc5C=Cc5ccccc54)cc3)ccc2-c2ccc(C#Cc3ccc(C=C4c5ccccc5C=Cc5ccccc54)cc3)cc21` returned an emission maximum (in C1CCOC1) of 405 nm.

On to `c1ccc(N(c2ccccc2)c2ccc(-c3ncc(-c4ccncc4)s3)cc2)cc1`, for which the emission maximum (in CO) is 534 nm.

Compound `CC(C)(C)c1cc(/C2=C3\C=CC(=N3)/C(c3ccc([N+](=O)[O-])cc3)=c3/cc/c([nH]3)=C(\c3ccc([N+](=O)[O-])cc3)C3=N/C(=C(/c4cc(C(C)(C)C)cc(C(C)(C)C)c4)c4cc2c[nH]4)C=C3)cc(C(C)(C)C)c1` yielded an emission maximum (in CC(=O)N(C)C) of 717 nm.

Where the note is “in ClC(Cl)Cl”, `F[B-]1(F)n2c(ccc2-c2ccccc2)C(c2ccc(I)cc2)=C2C=CC(c3ccccc3)=[N+]21` registered an emission maximum of 588 nm.

On to `CC1=CC(C)=[N+]2C1=C(c1ccc(O)cc1)c1c(C)cc(/C=C/C=C3/N(C)c4ccccc4C3(C)C)n1[B-]2(F)F`, for which the emission maximum (in O) is 708 nm.

`Clc1ccc(N2c3sc4ccccc4c3Sc3c2sc2ccccc32)cc1` had an emission maximum (in ClCCl) of 546 nm.

As to `CCCCCCOc1ccc(-c2ccc(/C=C/c3cc(/C=C/c4ccc(-c5ccc(OCCCCCC)cc5)cc4)ncn3)cc2)cc1`, the emission maximum (in ClCCl) was found to be 483 nm.

As to `N#CC(C#N)=Cc1ccc(-c2cccc(-c3nc4ccccc4s3)c2O)s1`, the emission maximum is, setting by setting: (in CCO) 630 nm; (in ClCCl) 607 nm; (in O) 646 nm.

Consider `CC(C)[Si]1(C(C)C)c2cc(N(C)C)ccc2-c2ccc(C(F)(F)F)cc21`, for which the emission maximum reads like this: (in C1CCCCC1) 402 nm; (in CC#N) 440 nm; (in CCO) 422 nm; (in CCOCC) 410 nm; (in CS(C)=O) 451 nm; (in ClCCl) 423 nm. The compound also displayed an emission maximum (in c1ccccc1) of 410 nm.

The compound `CCCCCCCCCC[n+]1cc2ccc3c[n+](CCCCCCCCCC)cc4ccc(c1)c2c34` gave an emission maximum (in CC#N) of 424 nm.

Turning to `Cc1nc2cccc(-c3nc4ccccc4o3)c2c(=O)[nH]1`, the emission maximum (in CN(C)C=O) is recorded as 398 nm.

Compound `c1ccc([B-]2(c3ccccc3)Oc3ccc4ccccc4c3-c3c4ccccc4nc[n+]32)cc1` showed an emission maximum (in Cc1ccccc1) of 543 nm.

With `c1ccc2[nH]ccc2c1`, the emission maximum (in O) was 360 nm and 345 nm and 340 nm.

`COc1ccc(-c2cc3c(o2)=CC2=C(C(F)(F)F)c4cc5oc(-c6ccc(OC)cc6)cc5n4[B-](F)(F)[N+]=32)cc1` gave an emission maximum (in ClC(Cl)Cl) of 738 nm.

`N#Cc1nc(N(Cc2ccc(Br)cc2)Cc2ccc(Br)cc2)c(C#N)nc1N(Cc1ccc(Br)cc1)Cc1ccc(Br)cc1` had an emission maximum (in ClC(Cl)Cl) of 575 nm.

For the compound `c1ccc(-c2cc(-c3ccc4c(c3)C3(c5ccccc5-c5ccccc53)c3cc(-c5cc(-c6ccccn6)nc(-c6ccccn6)c5)ccc3-4)cc(-c3ccccn3)n2)nc1`, where the note is “in ClC(Cl)Cl”, the emission maximum is reported as 395 nm.

With `CCn1c(-c2ccc(-c3ccc4c(c3)C3(c5ccccc5-c5ccccc53)c3ccccc3-4)cc2)c(-c2ccc3ccccc3c2)c(-c2ccc3ccccc3c2)c1-c1ccc(-c2ccc3c(c2)C2(c4ccccc4-c4ccccc42)c2ccccc2-3)cc1`, the emission maximum (in CCOC(C)=O) is 441 nm.

`N#Cc1ccc(C[C@H](N)C(=O)O)cc1`: the emission maximum (in C1CCOC1) stood at 292.44 nm; the emission maximum (in CCO) was 292.99 nm; the emission maximum (in CO) was 292.44 nm; the emission maximum (in O) is 293.54 nm; the emission maximum (in O=CO) was 294.16 nm.

In turn, `Cc1c(C)c(B(c2c(C)c(C)c(N3c4ccccc4Oc4ccccc43)c(C)c2C)c2c(C)c(C)c(N3c4ccccc4Oc4ccccc43)c(C)c2C)c(C)c(C)c1C#N` displayed an emission maximum (in c1ccc([Si](c2ccccc2)(c2ccc(-n3c4ccccc4c4ccccc43)cc2)c2ccc(-n3c4ccccc4c4ccccc43)cc2)cc1) of 517 nm.

With `CCCCNc1ccc(NCCCC)c2c1C(=O)c1ccccc1C2=O`, the emission maximum runs as follows: (in C1CCCCC1) 665 nm; (in C1COCCO1) 672 nm; (in CC(C)=O) 671 nm; (in CCCCCCCCCCO) 668 nm; (in CCCCCCCO) 661 nm; (in CCCCCCO) 670 nm. For the same compound, the emission maximum is, setting by setting: (in CCCCO) 671 nm; (in CCO) 674 nm; (in CN(C)C=O) 664 nm; (in CO) 666 nm; (in CS(C)=O) 678 nm; (in ClC(Cl)(Cl)Cl) 675 nm. For the same compound, under “in c1ccccc1”, the emission maximum is recorded as 667 nm.

In the case of `CN(C)c1ccc(-c2nc3c(c4c2-c2ccc(C#N)cc2CC4)-c2ccc(C#N)cc2CC3)cc1`, the emission maximum runs as follows: (in C1CCOC1) 500 nm; (in CC#N) 505 nm; (in CCCCCC) 444 nm; (in CCOC(C)=O) 489 nm; (in CO) 489 nm; (in CS(C)=O) 516 nm. In addition, the emission maximum reads like this: (in Cc1ccccc1) 469 nm; (in ClCCl) 482 nm.

In the case of `C[Si]1(c2ccccc2)C(c2ccc(-n3c4ccccc4c4ccccc43)cc2)=C(c2ccccc2)C(c2ccccc2)=C1c1ccc(-n2c3ccccc3c3ccccc32)cc1`, the emission maximum (in C1CCOC1) turned out to be 520 nm.

For `Fc1ccc(-c2nc3n(c2-c2ccncc2)CCS3)cc1`, the emission maximum is, setting by setting: (in C1CCCCC1) 397.5 nm; (in C1CCOC1) 414 nm; (in C1COCCO1) 412 nm; (in CC#N) 420 nm; (in CC(C)(C)O) 420 nm; (in CC(C)=O) 418 nm. The emission maximum is, setting by setting: (in CC(C)O) 436 nm; (in CCO) 438 nm; (in CCOC(C)=O) 414 nm; (in CN(C)C=O) 426 nm; (in CNC=O) 446 nm; (in CO) 439 nm. The emission maximum was 436 nm (in CS(C)=O); 411.5 nm (in Cc1ccc(C)cc1); 412 nm (in Cc1ccccc1); 413.5 nm (in ClC(Cl)Cl); 415 nm (in ClCCl); 415 nm (in O). Further, the emission maximum (in OCCO) turned out to be 440.5 nm and the emission maximum (in c1ccncc1) was determined as 434 nm.

As to `CC(C)[Si](C#Cc1ccc(C#C[Si](C(C)C)(C(C)C)C(C)C)c2nc3c4ccccc4c(=O)c4ccccc4c3nc12)(C(C)C)C(C)C`, the emission maximum (in ClCCl) came to 455 nm.

For `COc1ccc2c(c1)CCc1c-2nc(N)c(C#N)c1-c1ccc(Br)cc1`, the emission maximum by setting is: (in C1CCOC1) 403 nm; (in C1COCCO1) 412 nm; (in CC#N) 408 nm; (in CCCCCC) 392 nm; (in CCO) 419 nm; (in CN(C)C=O) 423 nm. This compound also yielded an emission maximum (in CO) of 418 nm, an emission maximum (in CS(C)=O) of 427 nm, an emission maximum (in ClC(Cl)Cl) of 415 nm and an emission maximum (in ClCCl) of 411 nm.

Compound `F[Si](c1ccccc1)(c1ccccc1)c1cccc2ccccc12` gave an emission maximum (in C1CCOC1) of 332 nm.

With `CN(C)c1cc(C#N)c(N(C)C)c(C#N)c1`, the emission maximum is reported as 495.79 nm (in C1CCCCC1); 518.13 nm (in C1CCOC1); 521.65 nm (in C1COCCO1); 532.48 nm (in CC1COC(=O)O1); 529.94 nm (in CC#N); 524.93 nm (in CC(C)=O). The emission maximum is, setting by setting: (in CC(C)OC(C)C) 503.02 nm; (in CCC#N) 525.76 nm; (in CCC(C)C) 493.58 nm; (in CCCCCC) 493.83 nm; (in CCCCCCCCO) 523.29 nm; (in CCCCCOCCCCC) 505.82 nm. This compound had an emission maximum (in CCCCOC(C)=O) of 516.8 nm; an emission maximum (in CCCCOCCCC) of 502.26 nm; an emission maximum (in CCCOCCC) of 507.61 nm; an emission maximum (in CCO) of 528.26 nm; an emission maximum (in CCOC(C)=O) of 519.21 nm; an emission maximum (in CCOCC) of 507.36 nm. The emission maximum (in CN(C)C=O) is 533.9 nm; the emission maximum (in CO) worked out at 530.5 nm; the emission maximum (in CS(C)=O) was 538.21 nm; the emission maximum (in Cc1ccccc1) stood at 516.8 nm; the emission maximum (in ClCCCl) is recorded as 523.56 nm; the emission maximum (in ClCCl) stood at 522.74 nm. Besides, the emission maximum is, setting by setting: (in N#Cc1ccccc1) 529.1 nm; (in O) 555.25 nm; (in OCC(O)CO) 547.35 nm; (in c1ccccc1) 519.48 nm.

In the case of `Clc1ccc(-c2nc3ccccc3c3cc4ccccn4c23)s1`, the emission maximum (in CS(C)=O) is 523.5 nm.

Source of the values: the Deep4Chem optical property database.
